The test deals with Hs700T human pancreatic adenocarcinoma cells. Put plainly: Subcutaneous model of human pancreatic adenocarcinoma. The settings on record: 5FU 35 mg/kg intraperitoneally, once weekly for 4 treatments. Format: in vivo, NCR.nu/nu homozygous mice. How it is done: This study was designed to test the dose-responsive anti-tumor data for an anti-LUCA2 antibody in a subcutaneous model of pancreatic cancer. Fluorouracil (5FU), a cytotoxic chemotherapy agent, was used as a positive control and tested to see if there was a cumulative effect with mu-anti-LUCA2 and 5FU.
Cultured Hs700T human pancreatic adenocarcinoma cells were trypsinized, washed in media, spun down and resuspended in media at 100 million cells per milliliter of media (5 million cells per 0.05 mL volume), then mixed in an equal volume of Matrigel® for a final injection volume of 0.1 mL. 72 NCR.nu/nu homozygous mice were dosed intraperitoneally during the study. The groups were (1) saline control at 0.2 mL, twice weekly for 10 treatments (2) mu-anti-LUCA2 antibody at 50 mg/kg, twice weekly for 10 treatments, (3) Fluorouracil (5FU) at 35 mg/kg, once weekly for 4 treatments, and (4) mu-anti-LUCA2 antibody at 50 mg/kg and 5FU at 35 mg/kg, twice weekly for 10 treatments.
Tumor growth over time was evaluated to determine anti-tumor activity. Tumors were palpable prior to initiation of therapy. Animals responding to antibody treatment were maintained after treatment cessation to determine time to tumor regrowth.

SMILES strings stand for the structures.

For `O=c1[nH]cc(F)c(=O)[nH]1` [5FU, Fluorouracil], the “tumor volume inhibition compared to saline control” value is recorded as “approximately 21.5%”.

(Values after patent US7847070B2, “LUCA2 and antibodies that bind thereto” (Raven biotechnologies, inc., priority 2005, dated 2010).)
